Measured values from ChEMBL document CHEMBL3351383, “Combination of chiral linkers with thiophenecarboximidamide heads to improve the selectivity of inhibitors of neuronal nitric oxide synthase” (Bioorg Med Chem Lett, 2014).

What was measured:
[1] = Selectivity index, ratio of Ki for bovine eNOS to KI for rat nNOS
[2] = Selectivity index, ratio of Ki for mouse macrophage iNOS to KI for rat nNOS

SMILES | Ratio Ki [1] | Ratio Ki [2]
N=C(Nc1ccc(OC[C@@H]2C[C@@H](Oc3cccc(NC(=N)c4cccs4)c3)CN2)cc1)c1cccs1 | 142 | 163
N=C(Nc1cccc(O[C@H]2CN[C@H](COCc3cccc(F)c3)C2)c1)c1cccs1 | 86 | 90
N=C(Nc1cccc(OC[C@@H]2C[C@@H](OCc3cccc(F)c3)CN2)c1)c1cccs1 | 18 | 92
